Paper PMC12145052 (Acta Pharmaceutica Sinica. B, 2025)
≈ marks a conversion by molar mass, not a printed value. Where a SMILES comes first, the peptide text is derived from it. [ ]: non-standard residue; d: D form. Phe(ol) = N[C@H](CO)Cc1ccccc1; Aib = CC(C)(N)C(=O)O

Columns and labels:
S. simulans 4 = test: Antibacterial test, broth microdilution; type: cell-based; conditions: Staphylococcus simulans
MRSA T144 [1] = test: Antibacterial test, broth microdilution; type: cell-based, methicillin-resistant Staphylococcus aureus; conditions: Staphylococcus aureus
MRSA 1530 (cfr) = test: Antibacterial test, broth microdilution; type: cell-based, methicillin-resistant Staphylococcus aureus; conditions: Staphylococcus aureus
MRSA T144 [2] = test: Galleria mellonella infection model; type: in vivo; conditions: MRSA T144 5.0 × 10^6 CFUs; 10 mg/kg at 1 h post-infection; n = 7
S. aureus ATCC 29213 = test: Antibacterial test, broth microdilution; type: cell-based, Staphylococcus aureus; conditions: Fig. S5
[3] = read-out: KD with PG; cited from earlier work

CN[C@H](CC(C)C)C(=O)N[C@H]1C(=O)N[C@@H](CC(N)=O)C(=O)N[C@H]2C(=O)N[C@H]3C(=O)N[C@H](C(=O)N[C@H](C(=O)O)c4cc(O)cc(O)c4-c4cc3ccc4O)[C@H](O)c3ccc(c(Cl)c3)Oc3cc2cc(c3O[C@@H]2O[C@H](CO)[C@@H](O)[C@H](O)[C@H]2O[C@H]2C[C@](C)(N)[C@H](O)[C@H](C)O2)Oc2ccc(cc2Cl)[C@H]1O [Vancomycin]
MIC (S. simulans 4): 1 µg/mL (≈ 0.69 µM) | MIC (MRSA T144 [1]): 1 µg/mL (≈ 0.69 µM) | MIC (MRSA 1530 (cfr)): 1 µg/mL (≈ 0.69 µM) | Bacterial loads in G. mellonella larvae (MRSA T144 [2]): decreased bacterial loads

CC(=O)NC(C)(C)C(=O)N1CCC[C@H]1C(=O)NC(C)(C)C(=O)N[C@@H](C)C(=O)NC(C)(C)C(=O)N[C@@H](C)C(=O)N[C@@H](CCC(N)=O)C(=O)NC(C)(C)C(=O)N[C@H](C(=O)NC(C)(C)C(=O)NCC(=O)N[C@@H](CC(C)C)C(=O)NC(C)(C)C(=O)N1CCC[C@H]1C(=O)N[C@H](C(=O)NC(C)(C)C(=O)NC(C)(C)C(=O)N[C@@H](CCC(=O)O)C(=O)N[C@@H](CCC(N)=O)C(=O)N[C@H](CO)Cc1ccccc1)C(C)C)C(C)C [alamethicin] (Ac-[Aib]P[Aib]A[Aib]AQ[Aib]V[Aib]GL[Aib]PV[Aib][Aib]EQ[Phe(ol)]; N-terminus assumed)
MIC (S. aureus ATCC 29213): 16 µg/mL (≈ 8.15 µM)

daptomycin
Kd [3]: 3.1 µM
